Source: publication PMC7261172, “Peptides containing the PCNA interacting motif APIM bind to the β-clamp and inhibit bacterial growth and mutagenesis” (Nucleic Acids Research, 2020)
≈ marks a conversion by molar mass, not a printed value. Read-outs that look alike come from different tables or passages of the source.

Assays:
S.aureus FDA486 = experiment: microbe, parasite or virus in culture; format: cell-based, Staphylococcus aureus
Experimental: (§1) Briefly, bacterial suspension in Mueller-Hinton Broth was adjusted to 0.5 McFarland and diluted to 5 × 10^5 CFU/ml. The suspension (0.1 ml) was seeded in polypropylene microtiter plates (Greiner), 5 × 10^4 CFU/well. APIM-peptides were added as 10% of the total volume. Initial inoculums were quantified by seeding on agar for verification of the estimated CFU/mL. After 24 hours (h) incubation at 37°C, the microtiter plates were inspected for visible growth.
(§2) Determination of minimal inhibitory concentrations (MICs) for S. aureus was done at Statens Serum Institute, Copenhagen, Denmark.

S.aureus ATCC 29213 = experiment: microbe, parasite or virus in culture; format: cell-based, Staphylococcus aureus
Experimental: as §1, §2

β-clamp = details: peptide:β-clamp 100:5 μM (RWLVK, RALVK octamers) or 50:20 μM (Pol III peptide); 298 K, pH 7.4
Experimental: All NMR spectra were recorded in a standard 5 mm NMR tube at 298 K in 20 mM NaH2PO4, 100 mM NaCl, pH 7.4, 0.25 mM DSS, 10% D2O on a Bruker AVANCE III 800-MHz (^1H) spectrometer equipped with a room temperature probe. Free induction decays were transformed and analyzed in Topspin (Bruker Biospin) and the aromatic region assigned.

E. coli BL21 [1] = format: cell-based, Escherichia coli; details: Mueller-Hinton Broth, 5 × 10^5 CFU/ml, 24 h, 37°C; average of ≥3 independent biological experiments
Experimental: as §1

E. coli MG1655 [2] = format: cell-based, Escherichia coli; details: Mueller-Hinton Broth, 5 × 10^5 CFU/ml, 24 h, 37°C; average of ≥3 independent biological experiments
Experimental: as §1

S.epidermidis (MRSE) = format: cell-based, Staphylococcus epidermidis; details: 24 h
Experimental: as §1

E.coli β-clamp = molecular target: T1, E.coli β-clamp (Escherichia coli, UniProt P0A988); experiment: Microscale thermophoresis (MST) β-clamp binding
T1 construct: made in house
Experimental: Purified E.coli β-clamp ([49]) was labeled using the RED-Maleimide Labelling Kit (NanoTemper Technologies, GmbH) according to the manufacturer's instructions applying a concentration of 20 μM protein at room temperature. The ligands, cell penetrating APIM-peptides, were dissolved and diluted in supplemented Microscale thermophoresis (MST) buffer (50 mM Tris–HCl pH 7.5, 150 mM NaCl, 10 mM MgCl2) with 2% fetal bovine serum and incubated for 10 min in room temperature. Series of 1:1 dilutions (16×), producing ligand concentrations ranging from 500 μM to 15 nM, were made. Each ligand solution was further diluted 1:1 with fluorescent labeled β-clamp (diluted in MST buffer, 3 nM) and incubated for 10 min. Fluorescence was measured for each protein-ligand sample using a Monolith NT.115 instrument (20% MST power and 100% LED power) and Monolith NT Standard Treated Capillaries (both NanoTemper Technologies, GmbH). To calculate the KD’s, fluorescence signals were plotted and analyzed using the supplemented software (NT Analysis software version 1.5.41 and MO.affinity analysis version 2.2.4, NanoTemper Technologies). Denaturation with SD-buffer (4% sodium dodecyl sulphate and 40 mM DTT) and re-measurement of total fluorescence confirmed that the observed change in fluorescence was due to ligand binding event.

E. coli MG1655 [3] = experiment: Rif^R mutagenicity assay, added cell penetrating peptides; format: cell-based, Escherichia coli; details: for Mutation frequency, added peptides: spontaneous, E. coli MG1655, cell penetrating peptide 20 μM, average ± SEM, RWLVK n = 11, RFSLK n = 4, RWLK n = 7, R11 n = 5, control 10.5 ± 2.2
Experimental: (§3) The rifampicin resistance (Rif^R) mutagenicity assay was performed as described in ([50]) with some modifications. Briefly, E. coli BL21 expressing peptide variants were induced with (IPTG) (1 mM) at OD600 = 0.3–0.4 and cultured at 37°C, for 2 h before harvested. Bacteria from large culture volumes (up to 50 ml) were plated in order to obtain ∼100 Rif^R colonies per dish. The anti-mutagenic effect of cell penetrating APIM-peptides in E. coli MG1655 was done by adding 20 μM peptide at OD600 = 0.01, and the cells were cultured for 30 min. Next, the cells were pelleted and washed with PBS before UV-irradiated in (50 μl) PBS (2 mJ UVC/cm^2), re-suspended in 2.5 ml LB and cultured in 37°C for 2 h before plating on LB plates with and without Rif (100 μg/ml). The number of Rif^R colonies/ total CFU was determined after 1 and 2 days, respectively. Significance was calculated by using a two-tailed, paired, students t-test. Gentamicin resistance (Gen^R) was examined using a gentamicin sensitive clinical isolate of S. epidermidis. […] The cultures were grown in a shaking incubator (37°C) and were re-inoculated (1:100) every 24 h in fresh TSB and supplements. The cultures were plated on blood agar plates with and without gentamicin (10 mg/l) every day for 4 days, and the frequency of Gen^R colonies was determined by calculating the number of Gen^R colonies/total CFU.

WT β-clamp = experiment: SPR analysis, immobilized WT β-clamp; format: binding, Escherichia coli; details: 4-128 μM peptide, single-cycle mode, 25°C, PBS P+ pH 7.4; Figure 2A
Experimental: (§4) The experiment was performed with Biacore S200 (GE Healthcare), at 25°C with a flowrate of 30 μl/min. Purified WT and mutant β-clamp protein were immobilized by amine coupling on CM5 Series S sensor chips (GE Healthcare).
(§5) Octamer peptides containing APIM motifs (underlined) [sequence] and [sequence] were diluted in running buffer (PBS P+ buffer: 20 mM phosphate buffer pH 7.4, 3 mM KCl, 137 mM NaCl, 0.05% surfactant P20) at 4, 8, 16, 32, 64 and 128 μM, and analyzed by single-cycle mode. Six consecutive injections of alternating running buffer or peptide in running buffer, with an association phase of 120 seconds (s) followed by a dissociation phase of 60 s and a final dissociation phase of 600 s, were run for each β-clamp protein variant. The running buffer series were used as blanks together with the signal from the reference channels for double-reference subtraction. After each series of six injections, the sensor chip was washed with a 120 s regeneration injection of 1 M NaCl followed by a 120 s injection of running buffer. The sensorgrams were processed (reference subtracted) with Biacore S200 Evaluation Software Version 1.1 (GE Healthcare) and normalized according to the immobilized level.

[4] = tested on: mutant β-clamps (H148K, M362D, V151A, P363D, P242D, V247F); experiment: SPR analysis, immobilized mutant β-clamps; format: binding, Escherichia coli; details: Figure 2B
Experimental: as §4, §5

[5] = tested on: E. coli MG1655 WT and TLS deletion mutant cells; experiment: Rif^R mutagenicity assay in WT and TLS deletion strains; format: cell-based, Escherichia coli; details: peptide 20 μM
Source text: S. aureus: ATCC 29213, FDA486, methicillin-resistant S. aureus strain (MRSA) 43484 and FusA88779; S. epidermidis: clinical isolates (including one gentamicin sensitive strain and several multidrug-resistant strains) from Department of Microbiology, St. Olavs University Hospital, Trondheim, Norway, kindly provided by professor Kåre Bergh; Escherichia coli: strains DH5α, BL21 (RIPL) DE3 (Novagen), K12 (MG1655) wild type (WT) and TLS deletion strains (ΔPol II^3, ΔPol IV^1, ΔPol V^1, ΔPol II/IV^3, ΔPol II/V^3, ΔPol IV/V^2 and ΔPol II/IV/V^3). ^1 Keio collection, ^2 generated by Prof Magnar Bjørås’ group, UiO and ^3prepared as described ([43]). Briefly, polB was inactivated in E. coli MG1655 WT, ΔPol IV, ΔPol V and ΔPol IV/V using JW0059:: polB. A phage stock (T4GT7) diluted in T4 buffer was added to the JW0059::polB culture, incubated and plated on LB agar plates. The lysate was harvested and added to 2 ml T4 buffer and 0.2 ml CHCl3 (T4GT7 lysate). The mixture was centrifuged, and supernatant stored at 4°C over 20 μl CHCl3. 0.5 ml overnight culture of the recipient cells was re-suspended in 1 ml of T4 buffer and aliquoted. The T4GT7 lysate (10^−1, 10^−2, 10^−3 and 10^−4 dilutions) was added to the aliquots, incubated for 25 minutes (min) at room temperature and plated on LB-agar plates with kanamycin. Colonies obtained were re-streaked twice to obtain a pure culture. Kanamycin resistance cassettes replacing the deleted polB genes were removed by an FLP-recombinase expressed by pCP20 plasmid.
as §3

S.aureus FusA88799 = format: cell-based, Staphylococcus aureus; details: n = 3
Experimental: as §1, §2

S.aureus (MRSA) 43484 = format: cell-based, Staphylococcus aureus
Experimental: as §1, §2

E. coli BL21 [6] = experiment: Overexpression (viability) assay; format: cell-based, Escherichia coli; details: IPTG 1 mM; 2 and 8 h after induction; peptide without cell penetrating part (MD-APIM-GILQSTLA); Figure 1D, Suppl. S1A
Experimental: A stop codon is found in the multiple cloning site after the NcoI/NheI site. The sequence over-expressed is MD-APIM-[…].
Induction was performed using isopropyl β-D-1-thiogalactopyranoside (IPTG) (1 mM) at OD600 = 0.3 - 0.4. Bacterial growth was measured by OD600 or the number of colony-forming units (CFU) per ml.

E. coli BL21 [7] = experiment: Rif^R mutagenicity assay, overexpressed peptides; format: cell-based, Escherichia coli
Experimental: as §3

[8] = molar form of the μg/ml MIC, n = 3
[9] = molar form of the μg/ml MIC (RWLVK MW = 3674 Da, ciprofloxacin MW = 313 Da), n = 3
[10] = Mueller-Hinton Broth, 5 × 10^5 CFU/ml, 37°C, average of ≥3 independent biological experiments

T1 sequence (P0A988 whole entry): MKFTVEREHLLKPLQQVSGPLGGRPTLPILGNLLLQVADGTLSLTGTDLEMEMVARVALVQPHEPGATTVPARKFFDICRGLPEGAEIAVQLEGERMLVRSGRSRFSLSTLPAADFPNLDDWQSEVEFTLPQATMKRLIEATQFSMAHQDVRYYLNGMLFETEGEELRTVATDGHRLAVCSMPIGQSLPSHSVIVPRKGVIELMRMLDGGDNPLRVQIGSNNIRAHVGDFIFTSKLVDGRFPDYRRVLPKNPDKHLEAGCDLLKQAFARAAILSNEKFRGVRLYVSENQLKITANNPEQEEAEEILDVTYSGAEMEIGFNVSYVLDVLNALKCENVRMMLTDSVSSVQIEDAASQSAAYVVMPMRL

## O=C(O)c1cn(C2CC2)c2cc(N3CCNCC3)c(F)cc2c1=O [Ciprofloxacin, reference compound]
S.aureus FDA486; Staphylococcus aureus, FDA486, Mueller-Hinton Broth, 5 × 10^5 CFU/ml, 24 h, 37°C, visible growth, n = 3, read-out: Minimal Inhibitory Concentration (MIC) S.aureus FDA486
  MIC: 0.25 µg/mL (≈ 0.754 µM)
S.aureus FDA486; [8]
  Minimal Inhibitory Concentration (MIC) S.aureus FDA486: 0.8 µM
S.aureus ATCC 29213; Staphylococcus aureus, ATCC29213, Mueller-Hinton Broth, 5 × 10^5 CFU/ml, 24 h, 37°C, visible growth, same result in three biological replicates (n = 3), read-out: Minimal Inhibitory Concentration (MIC) S.aureus ATCC 29213
  MIC: 0.5 µg/mL (≈ 1.51 µM)
S.aureus ATCC 29213; [9]
  Minimal Inhibitory Concentration (MIC) S.aureus ATCC 29213: 1.5 µM

## Ac-MDAWLVKW
β-clamp
  Binding to β-clamp by 1D 1H NMR (line broadening, chemical shift or intensity change): could not detect any binding

## Ac-MDRALVKWKKKRKIRRRRRRRRRRR-NH2 [RALVK]
E. coli BL21 [1]
  Minimal Inhibitory Concentration (MIC) E. coli BL21: 5 µM
E. coli MG1655 [2]
  Minimal Inhibitory Concentration (MIC) E. coli MG1655: 9 µM
S.epidermidis (MRSE); [10]
  Minimal Inhibitory Concentration (MIC) S.epidermidis (MRSE): 3 µM
E.coli β-clamp; cell penetrating peptides, MST buffer with 2% fetal bovine serum, initial in vitro binding experiments, bounds given, read-out: KD for the β-clamp (MST)
  Kd: > 750 µM

## Ac-MDRWLKWKKKRKIRRRRRRRRRRR-NH2 [RWLK]
E. coli BL21 [1]
  Minimal Inhibitory Concentration (MIC) E. coli BL21: 6 µM
E. coli MG1655 [2]
  Minimal Inhibitory Concentration (MIC) E. coli MG1655: 12 µM
S.epidermidis (MRSE); [10]
  Minimal Inhibitory Concentration (MIC) S.epidermidis (MRSE): 4 µM
E.coli β-clamp; cell penetrating peptides, MST buffer with 2% fetal bovine serum, initial in vitro binding experiments, bounds given
  KD for the β-clamp (MST): no binding was detected
E. coli MG1655 [3]
  Mutation frequency, added peptides: 7.7 ± 3.3 Rif^R/10^8 CFU

## Ac-MDRWLVKW
WT β-clamp
  Binding of octamer peptide to WT β-clamp (SPR): bound stronger
[4]; H148K, M362D, V151A, P363D, P242D, V247F versus WT
  Binding of peptide to all β-clamp variants (SPR): reduced ability to bind
[4]; β-clampV247F versus WT
  Reduced binding of peptide to β-clamp V247F (SPR): ~50%
β-clamp
  Binding to β-clamp by 1D 1H NMR (line broadening, chemical shift or intensity change): visual line broadening

## Ac-MDRWLVKWKKKRKIRRRRRRRRRRR-NH2 [RWLVK]
[5]; UV 2 mJ/cm^2, Figure 4C
  Effect on mutation frequency after UV-damage in all Pol V containing strains: reduced the mutation frequency
  Effect on mutation frequency after UV-irradiation in the ΔPol IV/V strain: reduction in the mutation frequency
[5]; n = 8–10, Figure 4C
  Effect on spontaneous mutation frequency in wild type (WT): significantly reduced
[5]; under any conditions (spontaneous and UV)
  Effect on mutation frequency in the TLS deficient ΔPol II/IV/V strain: No reduction of mutation frequency
[5]; Figure 4C
  Effect on spontaneous mutation frequency in the ΔPol II/V strain: increased mutation frequency
S.aureus FDA486; FDA486, 24 h
  Minimal Inhibitory Concentration (MIC) S.aureus FDA486: 10 µg/mL
S.aureus FDA486; [8]
  Minimal Inhibitory Concentration (MIC) S.aureus FDA486: 3 µM
S.aureus ATCC 29213; ATCC 29213, 24 h
  Minimal Inhibitory Concentration (MIC) S.aureus ATCC 29213: 10 µg/mL
S.aureus ATCC 29213; [9]
  Minimal Inhibitory Concentration (MIC) S.aureus ATCC 29213: 3 µM
E. coli BL21 [1]
  Minimal Inhibitory Concentration (MIC) E. coli BL21: 5 µM
E. coli MG1655 [2]
  Minimal Inhibitory Concentration (MIC) E. coli MG1655: 11 µM
S.aureus FusA88799; Mueller-Hinton Broth, 5 × 10^5 CFU/ml, 24 h, 37°C, visible growth
  Minimal Inhibitory Concentration (MIC) S.aureus FusA88799: 10 µg/mL
S.aureus FusA88799; molar form of the μg/ml MIC
  Minimal Inhibitory Concentration (MIC) S.aureus FusA88799: 3 µM
S.aureus (MRSA) 43484; 43484, 24 h
  Minimal Inhibitory Concentration (MIC) S.aureus (MRSA) 43484: 10 µg/mL
S.aureus (MRSA) 43484; [8]
  Minimal Inhibitory Concentration (MIC) S.aureus (MRSA) 43484: 3 µM
S.epidermidis (MRSE)
  Minimal Inhibitory Concentration (MIC) S.epidermidis (MRSE): 3 µM
E.coli β-clamp
  Kd: < 50 µM
E. coli MG1655 [3]; E. coli MG1655, peptide 20 μM, 2 mJ UVC/cm^2, Figure 4A
  Effect on UV-induced mutation frequency: reduced the mutation frequency
E. coli MG1655 [3]
  Mutation frequency, added peptides: 5.9 ± 2.3 ** Rif^R/10^8 CFU

## MD-RALVK- GILQSTLA [RALVK (overexpressed)]
E. coli BL21 [6]
  Effect of peptide overexpression on bacterial growth (CFU/ml relative to uninduced culture; OD600): did not inhibit bacterial growth

## MD-RWLK- GILQSTLA [RWLK (overexpressed)]
E. coli BL21 [7]; E. coli BL21, spontaneous
  Effect of overexpression on the mutation frequency: did not affect the mutation frequency
E. coli BL21 [7]; spontaneous, E. coli BL21, IPTG 1 mM, 2 h, average ± SEM, RWLVK n = 5, RFSLK n = 5, RWLK n = 6, control 2.5 ± 0.4
  Mutation frequency, overexpressed peptides: 3.8 ± 1.2 Rif^R/10^8 CFU
E. coli BL21 [6]
  Effect of peptide overexpression on bacterial growth (CFU/ml relative to uninduced culture; OD600): did not inhibit bacterial growth
